For test [1], the target named is NA of A/Vietnam/1203/2004 (H5N1) (Influenza A virus (A/Viet Nam/1203/2004(H5N1)), UniProt Q6DPL2). Put plainly: cell-based.
In test [2] the target is NA of A/Anhui/1/2013 (H7N9) (Influenza A virus (A/Anhui/1-BALF_RG1/2013(H7N9)), UniProt A0A024E3Q2). Format: cell-based.

Structures are written as SMILES.

A word on the IC50: it is the concentration that gives 50% inhibition. A higher IC50 goes with lower potency.

`O=C(O)c1ccc(N2C(=O)CCC2(CO)CO)c(Nc2nnc(C3CCCCC3)[nH]2)c1` [compound 5]: the IC50 in test [1] and in test [2] was greater than 480 µM each time.

The values are drawn from PMC6940900, “Antiviral Activity of Benzoic Acid Derivative NC-5 Against Influenza A Virus and Its Neuraminidase Inhibition” (International Journal of Molecular Sciences, 2019).
